Marks after values point to notes of the source that are not given here.
Assay: Promoting excretion of 238Pu(IV) in mice by injected ligands
Assay type: in vivo
Conditions: ligand 30 µmol kg^-1 ip at 1 h after iv ^238Pu(IV) citrate, kill at 24 h; for percent of injected ^238Pu at 24 h, excreta: feces and GI contents / percent of injected ^238Pu at 24 h, excreta: urine 0-24 h / percent of injected ^238Pu at 24 h, tissues: kidneys: pooled samples
Description: Animal studies were completed using methods detailed in Radiation Protection Dosimetry, in press, P. W. Durbin et al., "In Vivo Chelation of Am(III), Pu(IV), Np(V) and U(VI) in Mice by TREN-(Me-3,2-HOPO)"; Radiation Protection Dosimetry, 17, No. 1, 1989, p. 351, P. W. Durbin et al., "Removal of ^238Pu(IV) from Mice by Polycatechoylate, -Hydroxamate or -Hydroxypyridinonate Ligands"; Radiation Research, 99, 1984, p. 85, P. W. Durbin et al., "Specific Sequestering Agents for the Actinides ..."; Radiation Research, 99, 1984, p. 106, P. W. Durbin et al., "Removal of Pu and Am from Beagles and Mice ..."; Radiation Research, 81, 1980, p. 170, R. D. Lloyd et al., and P. W. Durbin et al., "Specific Sequestering Agents for the Actinides ...". The foregoing articles are hereby incorporated by reference.
Radionuclides used in the animal studies came from a variety of sources. However, they can be purchased commercially. The ^238Pu(IV) citrate and ^241Am(III) citrate solutions were prepared for animal injection by 8- to 10-fold dilution with 0.14M NaCl (pH 4) of concentrated stock solutions (0.08M sodium citrate buffer) that had been held in frozen storage at Lawrence Berkeley Laboratory (hereinafter LBL) for several years. [The ^238Pu(IV) was originally obtained from D. R. Atherton at the University of Utah Radiobiology Laboratory, Salt Lake City. The ^241Am(III) solution had been obtained many years earlier from the LBL Actinide Chemistry group.]
The novel chelating agents of the present invention and comparative compounds were tested for their effectiveness in promoting excretion ^238Pu(IV) in nice by injected ligands as follows. Mice, in groups of five, each received an intravenous injection of 1850 Bq ^238Pu(IV) in 0.2 mL of citrate buffer. One hour later, 30 µmol/kg of ligand was injected intraperitoneally in 0.5 mL of saline. The mice were killed 24 hours after the Pu injection, frozen, and dissected after partial thawing. The ^238Pu in skeleton, soft tissues, and separated excreta was determined by counting the ^234U L x-rays. Results of removal of ^238Pu(IV) from mice by injected ligands are summarized in Table 3, which also includes data for CaNa3-DTPA and other reference ligands and the Pu-injected controls. […] While the case of multidente 1,2-HOPO and catechoylamide chelating agents, octadentates are always better chelating agents than the corresponding hexadentates and tetradentates.

SMILES | percent of injected ^238Pu ± SD at 24 h, tissues: liver | percent of injected ^238Pu ± SD at 24 h, tissues: skeleton | percent of injected ^238Pu ± SD at 24 h, tissues: soft tissue | percent of injected ^238Pu ± SD at 24 h, whole body | percent of injected ^238Pu at 24 h, excreta: feces and GI contents | percent of injected ^238Pu at 24 h, excreta: urine 0-24 h | percent of injected ^238Pu at 24 h, tissues: kidneys
Cn1ccc(C(=O)NCCN(CCCN(CCNC(=O)c2ccn(C)c(=O)c2O)CCNC(=O)c2ccn(C)c(=O)c2O)CCNC(=O)c2ccn(C)c(=O)c2O)c(O)c1=O [H(3,2)-Me-3,2-HOPO, N,N,N',N'-tetrakis[(3-hydroxy-1-methyl-2-oxo-1,2-dihydropyridin-4-yl)carboxamido-ethyl]-propylenediamine] | 14 ± 6.1% of injected ^238Pu | 10 ± 2.0% of injected ^238Pu | 2.4 ± 0.3^d percent of injected ^238Pu | 28 ± 4.8% of injected ^238Pu | 52.1% of injected ^238Pu | 19.5% of injected ^238Pu | 1.2% of injected ^238Pu
Cn1ccc(C(=O)NCCN(CCCCN(CCNC(=O)c2ccn(C)c(=O)c2O)CCNC(=O)c2ccn(C)c(=O)c2O)CCNC(=O)c2ccn(C)c(=O)c2O)c(O)c1=O [H(4,2)-Me-3,2-HOPO, N,N,N',N'-tetrakis[(3-hydroxy-1-methyl-2-oxo-1,2-dihydropyridin-4-yl)carboxamido-ethyl]-butylenediamine] | 29 ± 6.1% of injected ^238Pu | 12 ± 2.9% of injected ^238Pu | 1.9 ± 1.0% of injected ^238Pu | 46 ± 8.5% of injected ^238Pu | 26.8% of injected ^238Pu | 28% of injected ^238Pu | 1.8% of injected ^238Pu
Cc1c(CNC(=O)c2ccn(C)c(=O)c2O)c(C)c(CNC(=O)c2ccn(C)c(=O)c2O)c(C)c1CNC(=O)c1ccn(C)c(=O)c1O [ME-Me-3,2-HOPO] | 6.1 ± 4.9^d percent of injected ^238Pu | 12 ± 1.8% of injected ^238Pu | 3.0 ± 2.0% of injected ^238Pu | 22 ± 8.5^d percent of injected ^238Pu | 70.1% of injected ^238Pu | 33.5% of injected ^238Pu | 0.9% of injected ^238Pu
Cn1ccc(C(=O)NCCN(CCNC(=O)c2ccn(C)c(=O)c2O)CCN(CC(=O)O)CC(=O)O)c(O)c1=O [TREN-bis(Me-3,2-HOPO)-bis acetic acid] | 6.6 ± 2.2^d percent of injected ^238Pu | 20 ± 1.7% of injected ^238Pu | 2.7 ± 0.8% of injected ^238Pu | 30 ± 3.6% of injected ^238Pu | 34.6% of injected ^238Pu | 8.7% of injected ^238Pu | 0.5% of injected ^238Pu
Cn1ccc(C(=O)NCCCN(CCCNC(=O)c2ccn(C)c(=O)c2O)CCCNC(=O)c2ccn(C)c(=O)c2O)c(O)c1=O [TRPN-Me-3,2-HOPO] | 17 ± 5.0% of injected ^238Pu | 14 ± 3.2% of injected ^238Pu | 2.0 ± 1.1% of injected ^238Pu | 33 ± 5.3% of injected ^238Pu | 11.5% of injected ^238Pu | 55% of injected ^238Pu | 
